Data taken from PMC12218921, “An adaptive peptide-binding site in ubiquitin receptor hRpn13 revealed by structural studies” (Nature Communications, 2025).
No end group written: not given here.

Assays:
hRpn13_ΔMTT [1] = target: T1, hRpn13_ΔMTT (Homo sapiens, UniProt Q16186); test: 1H-15N HSQC NMR titration / chemical shift perturbation (CSP), 0.1 mM 15N-labeled hRpn13_ΔMTT with unlabeled peptide; format: binding
T1 construct: recombinant plasmid of hRpn13 Pru (1–150) cloned into the pRSET vector; GST (N, cleaved yes); residual Gly-Ser (^cG-^dS) left after cleavage; made in house; host or cells: Escherichia coli BL21 (DE3); pGEX-4T-1 plasmid synthesized by GenScript (Addgene 237412)
T1 sequence (Q16186 4-150, stated change not applied): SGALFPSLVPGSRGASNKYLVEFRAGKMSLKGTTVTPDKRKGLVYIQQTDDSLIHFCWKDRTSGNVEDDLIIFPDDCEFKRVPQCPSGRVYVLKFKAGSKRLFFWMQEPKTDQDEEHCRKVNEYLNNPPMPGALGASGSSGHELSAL
Procedure: The similar spectral effects by adding ENT or ENT_M1S is readily apparent by quantifying and plotting the shifting across the Pru amino acid sequence (Supplementary Fig. 10b, c).
All ^1H-^15N HSQC experiments were acquired on samples dissolved in NMR buffer (20 mM sodium phosphate, pH 6.5, 50 mM NaCl, 1 mM TCEP, 10% D2O) unless specified, in which case 2 mM DTT replaced TCEP. The samples were purified in DTT-containing buffer and then exchanged into NMR buffer by using Zeba Protein Desalting columns (Thermo Fisher Scientific). The pH was measured and adjusted to 6.5. All NMR experiments were performed at 25 °C on a Bruker Advance 600 MHz spectrometer equipped with a cryogenically cooled probe. The data were processed by NMRpipe[46] (version 11.5) and spectra visualized and analyzed with NMR-FAM-SPARKY[47] (version 3.190) by using previous chemical shift assignments[12],[23] and NMRbox[48]. The amide nitrogen and hydrogen chemical shift perturbations (CSP) were mapped for each amino acid according to Eq. 1.1 CSP=0.2ΔδN2+ΔδH2
ΔδH, change in amide proton value (in parts per million); ΔδN, change in amide nitrogen value (in parts per million).
Supplementary Figure 9: 2D NMR experiments indicate ENT binding to hRpn13 Pru. a) ^1H-^15N HSQC spectrum of 0.1 mM ^15N-labeled hRpn13 (1-150, black) or hRpn13_ΔMTT (green). Select residues are labeled with amino acids in the Pru helix, proteasome binding region, and termini in blue, purple, and orange, respectively. Arrows indicate direction of shifting. b, c) ^1H-^15N HSQC spectra of 0.1 mM of ^15N-labeled hRpn13_ΔMTT alone (black) or with ENT present at equimolar (red), 2-fold (orange), 5-fold (yellow), 10-fold (green), 15-fold (blue), or 20-fold (purple) molar excess. […] All spectra were acquired at 600 MHz and 25°C in 20 mM sodium phosphate, pH 6.5, 100 mM NaCl, 1 mM TCEP, 10% D2O. ppm, part per million.

hRpn13_ΔMTT [2] = target: T1, hRpn13_ΔMTT; test: Competition assay by fluorescence polarization (unlabeled peptide vs TAMRA-hRpn2 (940–953)); format: binding
[3] = tested on: hRpn13 F76 arginine substitution; conditions: cited from earlier work

## GPGSMTT [ENT]
hRpn13_ΔMTT [1]; 100 μM 15N-hRpn13_ΔMTT, peptide up to 20-fold molar excess, pH 6.5, 25 °C, 600 MHz
  HSQC signal shifting of hRpn13_ΔMTT: small concentration-dependent shifting of the same (T114, D117-E119, C121) and additional (W61, M109, H120, H145) hRpn13 amide signals
hRpn13_ΔMTT [1]; 100 μM 15N-hRpn13_ΔMTT, varying molar ratios
  strength of binding to hRpn13 Pru (by HSQC): weak interaction between ENT and hRpn13 Pru
hRpn13_ΔMTT [1]; 20-fold molar excess peptide
  CSP A6: 0.001342
  CSP A28: 0.00743
  CSP A100: 0.002049
  CSP A136: 0.002049
  CSP A139: 0.0004472
  CSP A149: 0.003493
  CSP C60: 0.003715
  CSP C80: 0.002049
  CSP C88: 0.002449
  CSP C121: 0.02471
  CSP D41: 0
  CSP D53: 0.002049
  CSP D54: 0.001789
  CSP D63: 0.004494
  CSP D71: 0.007
  CSP D72: 0.007759
  CSP D78: 0.005899
  CSP D79: 0.002864
  CSP D115: 0.009859
  CSP D117: 0.033
  CSP E25: 0.009859
  CSP E70: 0.005459
  CSP E81: 0.001342
  CSP E111: 0.01601
  CSP E118: 0.06429
  CSP E119: 0.03311
  CSP E146: 0.01203
  CSP F8: 0.002049
  CSP F26: 0.0264
  CSP F59: 0.002864
  CSP F76: 0.007603
  CSP F82: 0.004219
  CSP F98: 0.009391
  CSP F106: 0.002864
  CSP F107: 0.001789
  CSP G5: 0
  CSP G17: 0.002683
  CSP G29: 0.003286
  CSP G45: 0.006148
  CSP G67: 0.001342
  CSP G91: 0.002049
  CSP G101: 0.004669
  CSP G135: 0.002449
  CSP G138: 0.001095
  CSP G141: 0.002049
  CSP G144: 0.001342
  CSP H58: 0.007057
  CSP H120: 0.07737
  CSP H145: 0.06834
  CSP I49: 0.002408
  CSP I57: 0.004025
  CSP I75: 0.001673
  CSP K21: 0.0004472
  CSP K30: 0.01021
  CSP K34: 0.002408
  CSP K42: 0.00502
  CSP K62: 0.001342
  CSP K83: 0.005367
  CSP K97: 0.002449
  CSP K99: 0.001095
  CSP K103: 0.003131
  CSP K113: 0.008729
  CSP K123: 0.01565
  CSP L7: 0.002408
  CSP L11: 0.001342
  CSP L23: 0.004382
  CSP L33: 0.002
  CSP L46: 0.004899
  CSP L56: 0.002236
  CSP L73: 0.003493
  CSP L96: 0.001095
  CSP L105: 0.006017
  CSP L128: 0.003
  CSP L137: 0.002449
  CSP L147: 0.01114
  CSP L150: 0.003493
  CSP M31: 0.003131
  CSP M109: 0.01978
  CSP M133: 0.001095
  CSP N20: 0.002049
  CSP N68: 0.001095
  CSP N125: 0.002049
  CSP N129: 0.004025
  CSP N130: 0.001673
  CSP Q50: 0.003742
  CSP Q51: 0.004025
  CSP Q87: 0.003742
  CSP R16: 0.001095
  CSP R27: 0.001095
  CSP R43: 0.002191
  CSP R64: 0.004025
  CSP R92 backbone: 0.003131
  CSP R92 sidechain: 0.016
  CSP R104: 0.008112
  CSP R122: 0.01435
  CSP S4: 0.009602
  CSP S10: 0.001342
  CSP S15: 0.001342
  CSP S19: 0.001342
  CSP S32: 0.001342
  CSP S55: 0.002864
  CSP S66: 0.004472
  CSP S102: 0.002049
  CSP S140: 0.001342
  CSP S142: 0.002049
  CSP S143: 0.002236
  CSP S148: 0.003286
  CSP T36: 0.00882
  CSP T37: 0.003578
  CSP T39: 0.001342
  CSP T52: 0
  CSP T65: 0.001342
  CSP T114: 0.02379
  CSP V12: 0.002049
  CSP V24: 0.003715
  CSP V47: 0.008497
  CSP V69: 0.004494
  CSP V93: 0.004494
  CSP V95: 0.002683
  CSP V124: 0.0139
  CSP W61: 0.0278
  CSP W108: 0.005899
  CSP Y22: 0.01048
  CSP Y48: 0.003715
  CSP Y94: 0.00502
  CSP Y127: 0.00531
hRpn13_ΔMTT [1]; e.g. F76 and D78 amide signals
  effect at Pru-B-binding surface (HSQC): No effects were observed at the Pru-B-binding surface
hRpn13_ΔMTT [2]; 80 nM hRpn13_ΔMTT, 10 nM TAMRA-hRpn2 (940–953), N = 6
  concentration required to completely decrease the FP to background levels: > 3 mM
hRpn13_ΔMTT [2]; FP competition
  concentrations at which peptides can displace hRpn2 from hRpn13: > 0.5 mM
hRpn13_ΔMTT [2]; peer review file, FP competition with TAMRA-hRpn2 (940-953), read-out: IC50 (FP decreased to background levels)
  IC50: > 3 mM

## ubiquitin
[3]
  hRpn13 binding to ubiquitin on arginine substitution of F76: abolishes hRpn13 binding to ubiquitin
